Target: T1, ACAT (enzyme solution derived from the small intestine of a rabbit)
T1 construct: An enzyme solution derived from the small intestine was prepared from the small intestine of a rabbit that had eaten a normal food
Assay: ACAT inhibitory activity, enzyme solution from rabbit small intestine
Assay type: biochemical
Details: B‡: the small intestine
Experimental: A microsome was prepared from the breast aorta of a rabbit which had been fed with 1% cholesterol food for 8 weeks in a usual manner, and suspended in a 0.15 M phosphate buffer solution (pH 7.4) to form an enzyme solution. An enzyme solution derived from the small intestine was prepared from the small intestine of a rabbit that had eaten a normal food.
To this solution were added 10 μl of the enzyme solution, and the mixture was reacted at 37° C. for 5 minutes (for 3 minutes in the case of the small intestine). Then, 3 ml of a chloroform/methanol (2/1) mixture and 0.5 ml of 0.04 N hydrochloric acid were added thereto to stop the reaction. The lipid was then extracted. The solvent layer was concentrated to dryness, and dissolved in hexane. The solution was spotted on a TLC plate(supplied by Merck Co.). The elution was conducted with a hexane:ether:acetic acid (75:25:1) mixture.
The radioactivity of the resulting cholesterol ester fraction was measured using BAS 2000 (supplied by Fuji Photo Film Co., Ltd.). An IC50 value was obtained from the calculation in contrast with a control containing only DMSO.

IC50 [nM] | Compound
870 | CC(C)c1cccc(C(C)C)c1NC(=O)C(C)(C)CCCOc1ccc2c(c1)C=C(c1nccn1C)C(CCc1ccc(F)cc1)O2 (stereo not drawn) [Control 1, 5-[2-(2-(4-fluorophenyl)ethyl)-3-(1-methyl-1H-imidazol-2-yl)-2H-1-benzopyran-6-yl]oxy-2,2-dimethyl-N-(2,6-diisopropylphenyl)pentanamide, reference compound]
37 | CCCCCCCN(CCCCCSc1nc(-c2ccccc2)c(-c2ccccc2)[nH]1)c1nc2ccccc2o1 [Control 4, [5-(4,5-diphenyl-1H-imidazol-2-ylthio)pentyl]-N-heptyl-2-benzoxazolamie, reference compound]
65 | CC(C)c1cccc(C(C)C)c1NC(=O)CCCCCSc1nc2ccccc2o1 [Control 5, 6-(benzoxazol-2-ylthio)-N-(2,6-diisopropylphenyl)hexanamide, reference compound]

System: J774 cells
Assay: ACAT inhibitory activity (anti-foamation activity) in J774 cells
Assay type: cell-based
Details: Mus musculus; J774 cells, 25-OH cholesterol 10 μg/ml, 18 hours; read-out: Enzyme (J774) IC50
Experimental: J774 cells or HepG2 cells were spread on a 24-well plate. The cells were incubated in a 5% CO2 incubator at 37° C. for 24 hours using DMEM in the case of the J774 cells and a MEM culture solution in the case of the HepG2 cells (both containing 10% fetal calf serum).
The medium was removed, and the residue was washed twice with PBS, then extracted with 1.5 ml of a hexane:isopropanol (3:2) mixture, and concentrated to dryness. The extract was dissolved in 0.2 ml of isopropanol containing 10% Triton X-100. Total cholesterol (TC) and free cholesterol (FC) were measured using Cholesterol E Test Wako (supplied by Wako Pure Chemical Industries, Ltd.) and Free Cholesterol E Test Wako (supplied by Wako Pure Chemical Industries, Ltd.).
The cell extract residue was solubilized in 0.25 ml of 2N NaOH at 37° C. for 30 minutes, and the protein amount was measured using BCA Protein Assay Reagent (Pierce).
The amount of cholesterol based on the protein was calculated from the difference between TC and FC, and an IC50 value was obtained from the calculation in contrast with the control.

IC50 [nM] | Compound
560 | CC(C)c1cccc(C(C)C)c1NC(=O)C(C)(C)CCCOc1ccc2c(c1)C=C(c1nccn1C)C(CCc1ccc(F)cc1)O2 (stereo not drawn) [Control 1, 5-[2-(2-(4-fluorophenyl)ethyl)-3-(1-methyl-1H-imidazol-2-yl)-2H-1-benzopyran-6-yl]oxy-2,2-dimethyl-N-(2,6-diisopropylphenyl)pentanamide, reference compound]
120 | CCCCCCCN(CCCCCSc1nc(-c2ccccc2)c(-c2ccccc2)[nH]1)c1nc2ccccc2o1 [Control 4, [5-(4,5-diphenyl-1H-imidazol-2-ylthio)pentyl]-N-heptyl-2-benzoxazolamie, reference compound]
1900 | CC(C)c1cccc(C(C)C)c1NC(=O)CCCCCSc1nc2ccccc2o1 [Control 5, 6-(benzoxazol-2-ylthio)-N-(2,6-diisopropylphenyl)hexanamide, reference compound]

System: not given
Assay: not given
Details: not given

melting point [°C] | Compound
159 to 162 | CCSc1cc(C)nc(SCC)c1NC(=O)CSc1nc2cccc(S(C)(=O)=O)c2o1 [Compound No. 1317, 2-(7-methansulfonylbenzoxazol-2-ylthio)-N-[2,4-bis(ethylthio)-6-methyl-3-pyridyl]acetamide]
149 to 153 | CSc1nc(SC)c(NC(=O)CCCCCSc2nc3ccccc3o2)c(SC)n1 [Compound No. 1401, 6-(benzoxazol-2-ylthio)-N-[2,4,6-tris(methylthio)-5-pyrimidyl]hexanamide]
168 to 169 | CCSc1cc(C)nc(SCC)c1NC(=O)CSc1nc2cccc(C(=O)OC)c2o1 [Compound No. 1427, 2-(7-methoxycarbonylbenzoxazol-2-ylthio)-N-[2,4-bis(ethylthio)-6-methyl-3-pyridyl]acetamide]
128 to 131 | CSc1cc(C)nc(SC)c1NC(=O)CCCCCCCSc1nc2c(C)c(Cl)cc(C(C)C)c2o1 [Example 95, 8-(5-chloro-7-isopropyl-4-methylbenzoxazol-2-ylthio)-N-[2,4-bis(methylthio)-6-methyl-3-pyridyl]octanamide]
127 to 128 | CSc1ncccc1NC(=O)CCCCCSc1nc2ccccc2o1 [compound 5, 6-(benzoxazol-2-ylthio)-N-(2-methylthio-3-pyridyl)hexanamide]
118 to 119 | CSc1ncccc1NC(=O)CCCCCSc1nc2ccccc2s1 [compound 15, 6-(benzothiazol-2-ylthio)-N-(2-methylthio-3-pyridyl)hexanamide]
107 to 108 | CSc1ncccc1NC(=O)CCCCCCCCSc1nc2ccccc2s1 [compound 18, 9-(benzothiazol-2-ylthio)-N-(2-methylthio-3-pyridyl)nonanamide]
121 to 123 | CSc1ncccc1NC(=O)CCCCCSc1nc2ccccc2[nH]1 [compound 25, 6-(benzimidazol-2-ylthio)-N-(2-methylthio-3-pyridyl)hexanamide]
91 to 92 | CSc1nccc(C)c1NC(=O)CCCCCCCCSc1nc2ccccc2o1 [compound 158, 9-(benzoxazol-2-ylthio)-N-(4-methyl-2-methylthio-3-pyridyl)nonanamide]
140 to 141 | CSc1nc(C)ccc1NC(=O)CCCCCSc1nc2ccccc2o1 [compound 455, 6-(benzoxazol-2-ylthio)-N-(6-methyl-2-methylthio-3-pyridyl)hexanamide]
99 to 100 | CSc1nc(C)ccc1NC(=O)CCCCCCCCSc1nc2ccccc2o1 [compound 458, 9-(benzoxazol-2-ylthio)-N-(6-methyl-2-methylthio-3-pyridyl)nonanamide]
122 to 123 | CSc1nc(C)ccc1NC(=O)CCCCCSc1nc2ccccc2s1 [compound 465, 6-(benzothiazol-2-ylthio)-N-(6-methyl-2-methylthio-3-pyridyl)hexanamide]
104 to 105 | CSc1nc(C)ccc1NC(=O)CCCCCCCCSc1nc2ccccc2s1 [compound 468, 9-(benzothiazol-2-ylthio)-N-(6-methyl-2-methylthio-3-pyridyl)nonanamide]
138 to 140 | CSc1nc(C)ccc1NC(=O)CCCCCSc1nc2ccccc2[nH]1 [compound 475, 6-(benzimidazol-2-ylthio)-N-(6-methyl-2-methylthio-3-pyridyl)hexanamide]
203 to 205 | CSc1cc(C)nc(SC)c1NC(=O)CSc1nc2ccccc2o1 [compound 781, 2-(benzoxazol-2-ylthio)-N-[2,4-bis(methylthio)-6-methyl-3-pyridyl]acetamide]
149 to 150 | CSc1cc(C)nc(SC)c1NC(=O)CCCSc1nc2ccccc2o1 [compound 783, 4-(benzoxazol-2-ylthio)-N-[2,4-bis(methylthio)-6-methyl-3-pyridyl]butanamide]
120 to 121 | CSc1cc(C)nc(SC)c1NC(=O)CCCCCSc1nc2ccccc2o1 [compound 785, 6-(benzoxazol-2-ylthio)-N-[2,4-bis(methylthio)-6-methyl-3-pyridyl]hexanamide]
123 to 124 | CSc1cc(C)nc(SC)c1NC(=O)CCCCCCCCSc1nc2ccccc2o1 [compound 788, 9-(benzoxazol-2-ylthio)-N-[2,4-bis(methylthio)-6-methyl-3-pyridyl]nonanamide]
131 to 133 | CSc1cc(C)nc(SC)c1NC(=O)CCCSc1nc2ccccc2s1 [compound 793, 4-(benzothiazol-2-ylthio)-N-[2,4-bis(methylthio)-6-methyl-3-pyridyl]butanamide]
123 to 125 | CSc1cc(C)nc(SC)c1NC(=O)CCCCCSc1nc2ccccc2s1 [compound 795, 6-(benzothiazol-2-ylthio)-N-[2,4-bis(methylthio)-6-methyl-3-pyridyl]hexanamide]
126 to 127 | CSc1cc(C)nc(SC)c1NC(=O)CCCCCCCCSc1nc2ccccc2s1 [compound 798, 9-(benzothiazol-2-ylthio)-N-[2,4-bis(methylthio)-6-methyl-3-pyridyl]nonanamide]
177 to 179 | CSc1cc(C)nc(SC)c1NC(=O)CCCSc1nc2ccccc2[nH]1 [compound 803, 4-(benzimidazol-2-ylthio)-N-[2,4-bis(methylthio)-6-methyl-3-pyridyl]butanamide]
139 to 141 | CSc1cc(C)nc(SC)c1NC(=O)CCCCCSc1nc2ccccc2[nH]1 [compound 805, 6-(benzimidazol-2-ylthio)-N-[2,4-bis(methylthio)-6-methyl-3-pyridyl]hexanamide]
143 to 145 | CCSc1cc(C)nc(SCC)c1NC(=O)CSc1nc2ccccc2o1 [compound 811, 2-(benzoxazol-2-ylthio)-N-[2,4-bis(ethylthio)-6-methyl-3-pyridyl]acetamide]
100 to 103 | CCSc1cc(C)nc(SCC)c1NC(=O)CCCCCSc1nc2ccccc2o1 [compound 815, 6-(benzoxazol-2-ylthio)-N-[2,4-bis(ethylthio)-6-methyl-3-pyridyl]hexanamide]
84 to 87 | CCSc1cc(C)nc(SCC)c1NC(=O)CCCCCCCCSc1nc2ccccc2o1 [compound 818, 9-(benzoxazol-2-ylthio)-N-[2,4-bis(ethylthio)-6-methyl-3-pyridyl]nonanamide]
119 to 120 | CCSc1cc(C)nc(SCC)c1NC(=O)CSc1nc2ccccc2s1 [compound 821, 2-(benzothiazol-2-ylthio)-N-[2,4-bis(ethylthio)-6-methyl-3-pyridyl]acetamide]
81 to 83 | CCSc1cc(C)nc(SCC)c1NC(=O)CCCCCSc1nc2ccccc2s1 [compound 825, 6-(benzothiazol-2-ylthio)-N-[2,4-bis(ethylthio)-6-methyl-3-pyridyl]hexanamide]
182 to 183 | CCSc1cc(C)nc(SCC)c1NC(=O)CSc1nc2ccccc2[nH]1 [compound 831, 2-(benzimidazol-2-ylthio)-N-[2,4-bis(ethylthio)-6-methyl-3-pyridyl]acetamide]
128 to 129 | Cc1cc(SC(C)C)c(NC(=O)CCCSc2nc3ccccc3o2)c(SC(C)C)n1 [compound 843, 4-(benzoxazol-2-ylthio)-N-[2,4-bis(isopropylthio)-6-methyl-3-pyridyl]butanamide]
